{
  "source": "patent US20120041025A1",
  "about": "“Dihydrolipoic Acid Derivatives Comprising Nitric Oxide and Therapeutic Uses Thereof” (priority 2009, published 2012)",
  "key": {"[1]": {"experiment": "Storage stability of DHLA-NO solution (color / absorbance at OD 545 nm)", "assay_type": "physicochemical", "description": "Furthermore, it was also observed that other reduced thiols (cysteine, glutathione), which were used as controls, generated similar S-nitroso thiol compounds. NO generated from the decomposition of other NO donors also generated nitroso-DHLA when incubated with DHLA. […] However, DHLA-NO stored at −80° C. retained its color up for up to 3 months without any loss of absorbance at OD 545 nm."}, "[2]": {"test_system": "bovine serum albumin (BSA)", "experiment": "Nitration of bovine serum albumin by NO-DHLA, western blot with anti-nitrotyrosine antibodies (NO donation)", "assay_type": "biochemical", "conditions": "BSA 25 mg/ml incubated with NO-DHLA (6 to 15 μl) for 1 hr; untreated albumin had no detectable nitrotyrosine", "description": "To determine the ability of the dinitroso-derivative of DHLA (6,8-bis[(oxidoazanylidyne)-λ^4-sulfanyl]octanoic acid or “NO-DHLA”) to donate nitric oxide (NO), bovine serum albumin (BSA) was first prepared in water at 25 mg/ml. In 100 μl of alcohol, increasing concentrations of BSA (15 to 30 μl) were then mixed with increasing concentrations of the NO-DHLA (0 to 15 μl) and incubated for 1 hr. Table 1 represents the incubation:\nAt the end of the incubation, samples were the separated by SDS-PAGE electrophoresis with along with markers of molecular weight. At the end of the electrophoresis, the blot was subsequently transferred on to a nitrocellulose membrane and western blotting was performed using anti-nitrotyrosine antibodies at a 1:1000 dilution (Oxford Biomedical Research, Rochester Hills, Mich.). Non-specific sites on the nitrocellulose were blocked with milk protein for 16 h at 4° C. and then overlaid with a polyclonal anti-nitrotyrosine rabbit antibody. Peroxidase conjugated anti-rabbit IgG was used as secondary antibody. […]"}, "[3]": {"test_system": "low-density lipoprotein (LDL)", "experiment": "Inhibition of low-density lipoprotein oxidation, spectral analysis at O.D. 234", "assay_type": "biochemical", "conditions": "10, 25, and 50 μM NO-DHLA in ethyl alcohol", "description": "To determine whether the dinitroso-derivative of dihydrolipoic acid (6,8-bis[(oxidoazanylidyne)-λ^4-sulfanyl]octanoic acid or “NO-DHLA”) was capable of inhibiting low-density lipoprotein (LDL) oxidation, LDLs were incubated in ethyl alcohol alone or with NO-DHLA. A spectral analysis of these solutions was then performed at an O.D. of 234, as absorbance at that portion of the spectrum is indicative of the formation of the oxidized fatty acid component of LDL."}},
  "data": [
    {"compound": "O=NSCCC(CCCCC(=O)O)SN=O", "note": "(centres unmarked) [NO-DHLA, 6,8-bis[(oxidoazanylidyne)-λ^4-sulfanyl]octanoic acid]", "values": [
      {"measurement": "stability of solution stored at room temperature", "setting": "[1]; solution stored at room temperature, color", "result": "decomposed, losing color within hours"},
      {"measurement": "stability without any loss of absorbance at OD 545 nm", "setting": "[1]; stored at −20° C.", "result": "stable at −20 °C for at least one month"},
      {"measurement": "time color retained without any loss of absorbance at OD 545 nm", "setting": "[1]; stored at −80° C.", "result": "up to 3 months"},
      {"measurement": "nitrotyrosine formation on BSA (reactivity with anti-nitrotyrosine antibody)", "setting": "[2]", "result": "intense reactivity with the antibody"},
      {"measurement": "oxidation of LDL (O.D. at 234 over time)", "setting": "[3]", "result": "effectively prevented or significantly reduced the oxidation of LDL"}
    ]}
  ]
}
